# Assay results taken from patent publication US20260021119A1, “TETRACYCLINE DERIVATIVES” (ICM (INSTITUT DU CERVEAU ET DE LA MOELLE ÉPINIÈRE), priority 2022, published 2026).
# Tests used:
# E. coli ATCC 28922 = experiment: MIC, standardized protocols (Example 9); assay type: cell-based; conditions: Escherichia coli, ATCC28922
# Description: (§1) Bacterial strains used in this study were: S. aureus (ATCC25923), E. coli (ATCC28922), E. faecalis (ATCC29212) and P. aeruginosa (PA01). The minimum inhibitory concentrations (MICs) were estimated using standardized protocols (Mawabo et al, J. Infect. Public Health 2015).
# P. aeruginosa PA01 = experiment: MIC, standardized protocols (Example 9); assay type: cell-based; conditions: Pseudomonas aeruginosa
# Description: as §1
# E. faecalis ATCC 29212 = experiment: MIC, standardized protocols (Example 9); assay type: cell-based; conditions: Enterococcus faecalis, ATCC29212
# Description: as §1
# S. aureus ATCC 25923 = experiment: MIC, standardized protocols (Example 9); assay type: cell-based; conditions: Staphylococcus aureus, ATCC25923
# Description: as §1
# [1] = tested on: p-tau (phosphorylated tau protein at Ser202, Thr205 residues); experiment: p-tau (AT8) expression in cultured cortical neurons under oxidative stress; assay type: cell-based, mouse; design: key to Reduction of the % of p-tau+ somas: a favorable response, synonymous with a decrease in the number of p-tau+ cell bodies; ++: a favorable response, synonymous with a decrease in the number of p-tau+ cell bodies; +++=reference level; an unfavorable response is represented by a sign “−”, synonymous with an elevation of the number of p-tau+ cell bodies; overexpression of p-tau in cortical cell bodies: dose or concentration left out as unconfirmed
# Description: A culture model of cortical neurons from mouse embryonic brain was used, in which neuronal cells were subjected to a maturation step until day in vitro (div) 7, before being gradually exposed to phenol red formulated DMEM/Nutrient mixture F12 Ham supplemented with 20 μg/mL of insulin, and 2 μM of the NMDA receptor blocker MK-801 (DF12i).
# Precisely, after 4 days of exposure to DF12i, between 10-15% of surviving neurons show a very strong AT8 immunosignal in their somas while only 1 to 1.5% of neuronal cell bodies are found immunopositive under conditions where oxidative stress is repressed by treatment with bovine apotransferrin (APO; 100 µg/mL, Sigma Aldrich), a glycoprotein with iron chelating properties. Likewise, overexpression of p-tau in cortical cell bodies is reduced by the two non-antibiotic tetracyclines compound of formula (C) ([…]) and compound of formula (Ib) ([…]): see the following Table: […]
# dopamine neurons = experiment: Neuroprotection in midbrain mouse cultures, survival of TH+ dopamine neurons; assay type: cell-based; conditions: 0.5 μM, 1 μM and 5 μM, div14
# Description: (§2) Midbrain mouse cultures were subjected to a maturation step until day in vitro (div) 7, and then gradually exposed to phenol red formulated DMEM/Nutrient mixture F12 Ham supplemented with 20 μg/mL of insulin and 2 μM of the NMDA receptor blocker MK-801. Under these conditions, which favor low-level, sustained oxidative insults, and lead ultimately to dopamine cell death, treatments with the compound of formula (Ib) according to the invention (at a concentration ranging from 0.1 to 5 μM) were performed or not, as well as treatments with the reference tetracycline antibiotic doxycycline (DOX; 10 μM) and the glycoprotein apotransferrin (APO; 100 μg/mL), the latter being used as reference neuroprotectant. At div14, cultures were fixed, and then processed for tyrosine hydroxylase (TH) immunocytochemistry to estimate the survival of dopamine neurons.
# as §2, with “(Ic)” for “(Ib)”, “with” for “with the reference tetracycline antibiotic doxycycline (DOX; 10 μM) and”
# [2] = tested on: primary mouse microglial cells (TNF-a release, LPS 10 ng/ml); experiment: Anti-inflammatory effect in LPS-activated primary mouse microglial cells, TNF-a ELISA; assay type: cell-based
# Description: Primary mouse microglial cells cultivated in Dulbecco's Modified Eagle Medium (DMEM) with no serum and 15 mM Hepes were challenged with lipopolysaccharide (LPS, 10 ng/ml) for 24 hours in the presence or not of the compound of formula (Ib) according to the present invention at concentrations of 1 μM, 5 μM, 25 μM and 50 μM. After that, the release of the proinflammatory cytokine TNF-a was estimated with an ELISA kit (ThermoFisher Scientific).
# 4 test bacterial strains = experiment: Antimicrobial effects, summary over the 4 test bacterial strains (Example 9); assay type: cell-based
# Description: as §1
# bacteria = experiment: Antimicrobial effect against bacteria (Example 13, no method given); assay type: cell-based
compound,measurement,setting,value
"C[C@@]1(O)c2cccc(O)c2C(=O)C2=C(O)C3C(=O)C(C(N)=O)=C(O)C[C@@H]3[C@@H](O)[C@@H]21 (stereo partly drawn) [Compound of formula (Ib), (4aS,5R,5aR,6S)-3,5,6,10,12-pentahydroxy-6-methyl-1,11-dioxo-1,4,4a,5,5a,6,11,12a-octahydrotetracene-2-carboxamide]",MIC,E. coli ATCC 28922,> 200 µM
same,MIC,P. aeruginosa PA01,> 200 µM
same,MIC,E. faecalis ATCC 29212,100 µM
same,MIC,S. aureus ATCC 25923,100 µM
same,overexpression of p-tau in cortical cell bodies,[1],reduced
same,Reduction of the % of p-tau+ somas,"[1]; compounds 3 μM, APO 100 μg/mL, mouse cortical cultures exposed div 7-11 to DF12i",+++
same,neuroprotective effect (survival of dopamine neurons),dopamine neurons,highly protective
same,reduction of proinflammatory effects of LPS (TNF-a release),"[2]; between 5 μM to 50 μM, LPS 10 ng/ml, 24 hours",reduces significantly
same,antimicrobial effects against the 4 test bacterial strains,4 test bacterial strains,effective against none of them
C[C@@]1(O)c2cccc(O)c2C(=O)C2=C(O)C3C(=O)C(C(N)=O)=C(O)CC3CC21 (stereo partly drawn) [Compound of formula (Ic)],antimicrobial effect against bacteria,bacteria,does not show any antimicrobial effect
same,neuroprotective effect (survival of dopamine neurons),dopamine neurons,highly protective
same,anti-inflammatory effects vis-à-vis 10 ng/mL LPS,"[2]; 5 μM, 25 μM and 50 μM",has anti-inflammatory effects
